Experimental data: patent US20040229816A1, “Anti-angiogenic and anti-tumoral properties of beta and gamma secretase inhibitors” (priority 2003, published 2004)
“Also recorded” adds a separate entry of the source. Like-named read-outs stand apart in the source and are kept apart here. Peptide text beside a SMILES is read from it. * marks the point of attachment. Cbz = O=C(OCc1ccccc1)*

What was measured:
[1] = tested on: APP; assay: carboxyl-terminal APP fragments in human brain endothelial cell lysates (immunoblotting); type: cell-based; conditions: 5 μM, 24 hours
Experimental: (§1) Confluent human brain endothelial cells (grown on 75 cm2 flasks with EBM 4% FBS medium) were treated for 24 hours with 5 μM of Z-VVL-CHO, 5 μM of L-685,458, 5 μM of OM99-2, 5 AM of DAPT or went untreated (control). Experiments were done in quadriplicate for each treatment condition. 6E10 (Signet), a mAb that recognizes residues 1-17 of human Aβ (Van Nostrand et al., Nature, 341, 546-549, 1989) was used to immunoprecipitate soluble APP generated following cleavage by α-secretase from cell culture medium. Immunoprecipitated material was resolved on a 4-20% gradient SDS-PAGE, transferred to PVDF membranes and immunodetected with mAb 22C11 (Roche Diagnostics) that recognizes the amino acids 66-81 of the N-terminal portion of APP (Hibich, C., J. Biol. Chem., 268, 26571-26577, 1993). Human brain endothelial cells were lysed on ice using MPERTM reagent (Pierce) supplemented with 1 mM PMSF and 1 mM of sodium-orthovanadate. Samples were sonicated and centrifuged at 10,000 g for 30 min at 4° C. The protein content of the lysates was determined using the BCA Protein assay kit (Pierce). Total lysates ([…] of protein/sample) were separated on a 4-20% gradient SDS-PAGE and transferred to PVDF membranes and immunoprobed with mAb 22C11 in order to detect full length APP and also immunoprobed with an Anti-APP-CT20 (Calbiochem) antibody which recognizes the amino acid residues 751-770 of the carboxyl terminal region of APP (Pinnix et al. 2001; J. Biol. Chem., 276, 481).

[2] = tested on: human glioblastoma (U-87 MG) xenografts; assay: human glioblastoma U-87 MG xenografts in nude mice; type: in vivo; conditions: Z-VLL-CHO 5 mg/Kg; for vascularization (vascular index) of U-87 MG tumors versus vehicle: DAPT 10 mg/Kg intraperitoneally, CD31/PECAM-1 immunostaining; for growth (tumor volume) of U-87 MG xenografts versus vehicle: intraperitoneally everyday for 9 days, DAPT 10 mg/Kg
Experimental: FIG. 8a: Anti-tumoral effect of the γ-secretase inhibitor DAPT and of the β-secretase inhibitor Z-VLL-CHO on human glioblastoma (U-87 MG) xenografts growth rates. U-87 MG cells (6×10^6) were injected subcutaneously into both flanks of 8-10 weeks-old nude mice. Mice were injected intraperitoneally with either the vehicle, 5 mg/Kg of body weight of the β-secretase inhibitor Z-VLL-CHO or 10 mg/Kg of body weight of the γ-secretase inhibitor DAPT, starting when tumors had reached a mean tumor volume of approximately 140 mm^3 (day 8 post implantation). Injections were given everyday for 9 days. […] FIG. 8b: Representative pictures of sections of glioblastoma tumors immunostained with CD31 antibodies. FIG. 8c: Histogram depicting the estimation of glioblastoma tumor vascularization.
The human glioblastoma U-87 MG and human lung adenocarcinoma A-549 cell lines were obtained from American Tissue Culture Type Collection (Manassas, Va.) and were grown in DMEM containing 1×penicilline-streptomycine-fungizone and 10% fetal bovine serum at 37° C. in a humidified atmosphere of 5% CO2. Tumor cells (6×106) in 100 μl of PBS were inoculated subcutaneously into both flanks of 8-10-week-old female nude mice (Harland). Tumor volume (in mm^3) was determined using the formula (length×width^2)/2, where length was the longest axis and width the measurement at right angles to the length (Clarke et al. 2000). When the tumor volumes reached approximately 150 mm^3, animals were treated intraperitoneally everyday with 100 μl of 50% DMSO/H2O (vehicle group), 5 mg/Kg of body weight of Z-VLL-CHO (β-secretase inhibitor), 5 mg/Kg of JLK-6 (γ-secretase inhibitor) or with 10 mg/Kg of body weight of DAPT. Data were expressed as mean tumor volume±S.E for each treatment group.
At the completion of the study, animals were humanely euthanized and tumors were harvested and fixed in paraformaldehyde 4% overnight at 4° C. After paraffin embedding in an automated tissue processing Sakura Tissue-Tek (E150) (Torrence, Calif.), samples were cut into 5 μm sections, deparafinized, and rehydrated through a graded series of alcohol. Sections were treated with 0.02 mg/ml Proteinase K (Gentra Systems, MN) for 15 minutes at 37° C. to allow for proper antigen retrieval, washed several times in PBS and incubated for 15 minutes in a 0.3% solution of hydrogen peroxide. […] Quantification of tumor vascularization was performed using the stereological dissector method. […] Microvessels were counted in the dissector frame by an experimenter unaware of the different treatment conditions. For each tumor an average vessel count per area of dissector frame was determined. A vascular index was calculated by expressing the vessel count as a percentage of the vessel count in the vehicle treatment condition.

[3] = tested on: Human middle cerebral artery endothelial cells; assay: capillary morphogenesis assay; type: cell-based
Experimental: Two hundred μl of Matrigel were placed into each well of a 24-well culture plate at 4° C. and allowed to polymerize by incubation at 37° C. Human middle cerebral artery endothelial cells (5×104) were seeded on the Matrigel in 1 ml of EBM containing 4% fetal calf serum. The cells were incubated at 37° C. for 20 hours in a humidified 5% CO2 atmosphere in the presence or absence of various doses of γ-secretase and β-secretase inhibitors as indicated in the figure legends. The experiments were performed in quadruplicate for each treatment condition. For each culture, 2 randomly chosen fields were photographed using a 4×objective. An experimenter unaware of the different treatments measured the total length of tube structures in each photograph using the Image Pro Plus software (Media Cybernetic, Inc., Md.). Capillary network lengths for the different treatment conditions were expressed as the percentage of capillary network lengths obtained in the control condition.

[4] = tested on: APP; assay: α-sAPP secretion by human brain endothelial cells (immunoprecipitation, immunoblotting); type: cell-based; conditions: 5 μM, 24 hours
Experimental: as §1

[5] = molecular target: T1, β-secretase (Cricetulus griseus, UniProt G3IAK4); conditions: Chinese hamster ovary cells, wild-type APP751, cited from earlier work
T1 construct: endogenous in cells; host or cells: Chinese hamster ovary cells stably transfected with wild-type APP751
T1 sequence (G3IAK4 22-501): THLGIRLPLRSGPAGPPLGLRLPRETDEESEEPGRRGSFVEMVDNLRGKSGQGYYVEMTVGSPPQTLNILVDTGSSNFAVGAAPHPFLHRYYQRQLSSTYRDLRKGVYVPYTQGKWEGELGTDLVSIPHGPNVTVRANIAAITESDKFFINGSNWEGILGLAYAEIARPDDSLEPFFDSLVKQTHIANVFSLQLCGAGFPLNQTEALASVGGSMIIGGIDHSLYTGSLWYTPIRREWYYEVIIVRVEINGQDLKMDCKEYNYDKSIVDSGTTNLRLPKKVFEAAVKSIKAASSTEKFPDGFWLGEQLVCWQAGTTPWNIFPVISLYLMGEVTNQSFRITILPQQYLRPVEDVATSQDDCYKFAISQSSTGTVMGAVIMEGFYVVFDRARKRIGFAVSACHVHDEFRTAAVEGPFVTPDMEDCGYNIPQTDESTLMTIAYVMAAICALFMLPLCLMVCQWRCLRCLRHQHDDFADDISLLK

Row | Structure (SMILES) | accumulation of carboxyl-terminal APP fragments (APP CTF) [1] | vascularization (vascular index) of U-87 MG tumors versus vehicle [2] | growth (tumor volume) of U-87 MG xenografts versus vehicle [2] | formation of capillary structures, overall [3] | secretion of α-sAPP [4] | secretion of α-sAPP ([4]; listed as Z-VVL-CHO) | IC50 ([5]; read-out: formation of Aβ42, IC50) [nM] | IC50 ([5]; read-out: formation of Aβtotal, IC50) [nM]
1 | C[C@H](NC(=O)Cc1cc(F)cc(F)c1)C(=O)N[C@H](C(=O)OC(C)(C)C)c1ccccc1 [DAPT, N-[N-(3,5-difluorophenacetyl-L-alanyl)]-S-phenylglycine t-butyl ester] | stimulates; also recorded: promoted the accumulation | decreased vascularization; also recorded: significantly reduce the vascularization | completely inhibited the growth; also recorded: inhibit the growth | – | – | – | – | –
2 | CC(C)C[C@@H](C=O)NC(=O)[C@H](CC(C)C)NC(=O)[C@@H](NC(=O)OCc1ccccc1)C(C)C [Z-VLL-CHO, N-benzyloxycarbony-val-leu-leucinal] (Cbz-Val-Leu-Leu-aldehyde) | – | decreased vascularization; also recorded: significantly reduce the vascularization | completely inhibited the growth; also recorded: inhibit the growth | profoundly anti-angiogenic | stimulated | significantly inceases | 2500 | 700
